Data published in ChEMBL document CHEMBL1201861, “Genomics of Drug Sensitity in Cancer screening data, Wellcome Trust Sanger Institute”.

Tests used:
Assay in all cases: cells
[1] = system: DU-145; type: functional, cell-based; settings: Homo sapiens
Description: SANGER: Inhibition of human DU-145 cell growth in a cell viability assay.

[2] = system: NCI-H1793; type: functional, cell-based; settings: Homo sapiens;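 further: cell growth inhibition, read out by a cell viability assay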
Description: SANGER: Inhibition of human NCI-H1793 cell growth in a cell viability assay.

[3] = system: BCPAP; type: functional, cell-based; settings: Homo sapiens;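 further: growth inhibition of BCPAP cells, read out in a cell viability assay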
Description: SANGER: Inhibition of human BCPAP cell growth in a cell viability assay.

[4] = system: HGC-27; type: functional, cell-based; settings: Homo sapiens;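 further: growth inhibition of human HGC-27 cells, read out in a cell viability assay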
Description: SANGER: Inhibition of human HGC-27 cell growth in a cell viability assay.

[5] = system: SK-LU-1; type: functional, cell-based; settings: Homo sapiens;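 further: cell viability assay measuring growth inhibition of human SK-LU-1 cells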
Description: SANGER: Inhibition of human SK-LU-1 cell growth in a cell viability assay.

[6] = system: LK-2; type: functional, cell-based; settings: Homo sapiens;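 further: growth inhibition of LK-2 cells, read out with a viability assay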
Description: SANGER: Inhibition of human LK-2 cell growth in a cell viability assay.

[7] = system: SW626; type: functional, cell-based; settings: Homo sapiens;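 further: growth inhibition of SW626 cells, measured with a cell viability assay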
Description: SANGER: Inhibition of human SW626 cell growth in a cell viability assay.

[8] = system: HuP-T4; type: functional, cell-based; settings: Homo sapiens;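 further: cell viability assay measuring how much HuP-T4 cell growth is inhibited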
Description: SANGER: Inhibition of human HuP-T4 cell growth in a cell viability assay.

[9] = system: A-375; type: functional, cell-based; settings: Homo sapiens;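 further: growth inhibition of A375 cells, read out with a cell viability assay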
Description: SANGER: Inhibition of human A375 cell growth in a cell viability assay.

[10] = system: J82; type: functional, cell-based; settings: Homo sapiens;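 further: growth inhibition of J82 cells, read out with a cell viability assay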
Description: SANGER: Inhibition of human J82 cell growth in a cell viability assay.

[11] = system: KYSE-180; type: functional, cell-based; settings: Homo sapiens;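 further: growth inhibition of KYSE-180 cells, read out with a cell viability assay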
Description: SANGER: Inhibition of human KYSE-180 cell growth in a cell viability assay.

[12] = system: HC-1; type: functional, cell-based, Homo sapiens; settings: Homo sapiens, HC-1;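 further: growth inhibition of HC-1 cells measured by a cell viability assay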
Description: SANGER: Inhibition of human HC-1 cell growth in a cell viability assay.

[13] = system: KOSC-2; type: functional, cell-based; settings: Homo sapiens;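 further: growth inhibition of KOSC-2 cells, read out by a cell viability assay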
Description: SANGER: Inhibition of human KOSC-2 cell growth in a cell viability assay.

[14] = system: MDA-MB-175-VII; type: functional, cell-based; settings: Homo sapiens
[15] = system: KMOE-2; type: functional, cell-based, Homo sapiens; settings: Homo sapiens, KMOE-2;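 further: growth inhibition of human KMOE-2 cells, read out with a cell viability assay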
Description: SANGER: Inhibition of human KMOE-2 cell growth in a cell viability assay.

[16] = system: DMS-273; type: functional, cell-based; settings: Homo sapiens
Description: SANGER: Inhibition of human DMS-273 cell growth in a cell viability assay.

[17] = system: EFM-19; type: functional, cell-based; settings: Homo sapiens;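 further: growth inhibition of human EFM-19 cells, measured in a cell viability assay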
Description: SANGER: Inhibition of human EFM-19 cell growth in a cell viability assay.

[18] = system: PC-14; type: functional, cell-based; settings: Homo sapiens;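 further: cell viability assay measuring inhibition of PC-14 cell growth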
Description: SANGER: Inhibition of human PC-14 cell growth in a cell viability assay.

[19] = system: HPAF-II; type: functional, cell-based; settings: Homo sapiens;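 further: growth inhibition of HPAF-II cells, read out with a cell viability assay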
Description: SANGER: Inhibition of human HPAF-II cell growth in a cell viability assay.

[20] = system: HTC-C3; type: functional, cell-based; settings: Homo sapiens;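 further: inhibition of cell growth, read out with a cell viability assay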
Description: SANGER: Inhibition of human HTC-C3 cell growth in a cell viability assay.

[21] = system: NB17; type: functional, cell-based, Homo sapiens; settings: Homo sapiens, NB17;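 further: growth inhibition of NB17 cells, read out with a cell viability assay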
Description: SANGER: Inhibition of human NB17 cell growth in a cell viability assay.

[22] = system: HOS; type: functional, cell-based; settings: Homo sapiens;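 further: growth inhibition of human HOS cells, read out with a cell viability assay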
Description: SANGER: Inhibition of human HOS cell growth in a cell viability assay.

[23] = system: EC-GI-10; type: functional, cell-based, Homo sapiens; settings: Homo sapiens, EC-GI-10
Description: SANGER: Inhibition of human EC-GI-10 cell growth in a cell viability assay.

[24] = system: SK-MEL-30; type: functional, cell-based; settings: Homo sapiens;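 further: growth inhibition of SK-MEL-30 cells, determined with a cell viability assay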
Description: SANGER: Inhibition of human SK-MEL-30 cell growth in a cell viability assay.

[25] = system: OE33; type: functional, cell-based; settings: Homo sapiens;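 further: growth inhibition of human OE33 cells, measured by a cell viability assay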
Description: SANGER: Inhibition of human OE33 cell growth in a cell viability assay.

[26] = system: UMC-11; type: functional, cell-based; settings: Homo sapiens;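 further: growth inhibition of UMC-11 cells, read out with a cell viability assay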
Description: SANGER: Inhibition of human UMC-11 cell growth in a cell viability assay.

[27] = system: PC-3; type: functional, cell-based; settings: Homo sapiens;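 further: cell viability assay measuring growth inhibition of PC-3 cells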
Description: SANGER: Inhibition of human PC-3 cell growth in a cell viability assay.

[28] = system: AU565; type: functional, cell-based; settings: Homo sapiens;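 further: cell viability assay measuring growth inhibition of human AU565 cells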
Description: SANGER: Inhibition of human AU565 cell growth in a cell viability assay.

[29] = system: BHT-101; type: functional, cell-based; settings: Homo sapiens
Description: SANGER: Inhibition of human BHT-101 cell growth in a cell viability assay.

[30] = system: KYSE-510; type: functional, cell-based; settings: Homo sapiens;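 further: cell viability readout used to measure how strongly growth of the cell line is suppressed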
Description: SANGER: Inhibition of human KYSE-510 cell growth in a cell viability assay.

[31] = system: SK-OV-3; type: functional, cell-based; settings: Homo sapiens;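 further: growth inhibition of SK-OV-3 human cells, read out with a cell viability assay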
Description: SANGER: Inhibition of human SK-OV-3 cell growth in a cell viability assay.

[32] = system: MDA-MB-415; type: functional, cell-based; settings: Homo sapiens
[33] = system: KYSE-270; type: functional, cell-based; settings: Homo sapiens;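 further: cell growth inhibition measured with a viability assay in the human KYSE-270 line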
Description: SANGER: Inhibition of human KYSE-270 cell growth in a cell viability assay.

[34] = system: OVCAR-8; type: functional, cell-based; settings: Homo sapiens;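 further: growth inhibition of human OVCAR-8 cells, read out by a cell viability assay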
Description: SANGER: Inhibition of human OVCAR-8 cell growth in a cell viability assay.

[35] = system: KYSE-140; type: functional, cell-based; settings: Homo sapiens;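 further: cell viability assay measuring growth inhibition in human KYSE-140 cells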
Description: SANGER: Inhibition of human KYSE-140 cell growth in a cell viability assay.

[36] = system: CAL-33; type: functional, cell-based; settings: Homo sapiens;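 further: growth inhibition of CAL-33 cells, read out with a cell viability assay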
Description: SANGER: Inhibition of human CAL-33 cell growth in a cell viability assay.

[37] = system: NCI-H727; type: functional, cell-based; settings: Homo sapiens;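 further: growth inhibition of human NCI-H727 cells, read out with a cell viability assay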
Description: SANGER: Inhibition of human NCI-H727 cell growth in a cell viability assay.

[38] = system: SK-MEL-28; type: functional, cell-based; settings: Homo sapiens;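 further: growth inhibition of human SK-MEL-28 cells, read out with a cell viability assay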
Description: SANGER: Inhibition of human SK-MEL-28 cell growth in a cell viability assay.

[39] = system: HuCCT-1; type: functional, cell-based, HuCCT1; settings: Homo sapiens;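 further: growth inhibition of HuCCT-1 cells, read out by a cell viability assay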
Description: SANGER: Inhibition of human HuCCT1 cell growth in a cell viability assay.

[40] = system: NUGC-3; type: functional, cell-based; settings: Homo sapiens;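 further: growth inhibition of human NUGC-3 cells, read out with a cell viability assay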
Description: SANGER: Inhibition of human NUGC-3 cell growth in a cell viability assay.

[41] = system: HCC 2998; type: functional, cell-based; settings: Homo sapiens;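 further: growth inhibition of human HCC2998 cells, measured with a cell viability read-out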
Description: SANGER: Inhibition of human HCC2998 cell growth in a cell viability assay.

[42] = system: HO-1-N-1; type: functional, cell-based; settings: Homo sapiens;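 further: growth inhibition of human HO-1-N-1 cells, read out with a cell viability assay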
Description: SANGER: Inhibition of human HO-1-N-1 cell growth in a cell viability assay.

[43] = system: NCI-H510A; type: functional, cell-based, Homo sapiens; settings: Homo sapiens, NCI-H510A;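 further: growth inhibition of NCI-H510A cells, read out with a cell viability assay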
Description: SANGER: Inhibition of human NCI-H510A cell growth in a cell viability assay.

[44] = system: KU-19-19; type: functional, cell-based; settings: Homo sapiens
Description: SANGER: Inhibition of human KU-19-19 cell growth in a cell viability assay.

[45] = system: FTC-133; type: functional, cell-based; settings: Homo sapiens
[46] = system: RVH-421; type: functional, cell-based; settings: Homo sapiens
Description: SANGER: Inhibition of human RVH-421 cell growth in a cell viability assay.

[47] = system: MG-63; type: functional, cell-based; settings: Homo sapiens;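 further: growth inhibition of human MG-63 cells, read out with a cell viability assay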
Description: SANGER: Inhibition of human MG-63 cell growth in a cell viability assay.

Compound: CC1=C(/C=C/C(C)=C/C=C/C(C)=C/C(=O)O)C(C)(C)CCC1 [TRETINOIN]
- IC50 [1]: > 10 µM
- IC50 [2]: > 10 µM
- IC50 [3]: > 10 µM
- IC50 [4]: > 10 µM
- IC50 [5]: > 10 µM
- IC50 [6]: > 10 µM
- IC50 [7]: > 10 µM
- IC50 [8]: > 10 µM
- IC50 [9]: > 10 µM
- IC50 [10]: > 10 µM
- IC50 [11]: 6.7 µM
- IC50 [12]: > 10 µM
- IC50 [13]: > 10 µM
- IC50 [14]: > 10 µM
- IC50 [15]: > 10 µM
- IC50 [16]: > 10 µM
- IC50 [17]: > 10 µM
- IC50 [18]: > 10 µM
- IC50 [19]: > 10 µM
- IC50 [20]: > 10 µM
- IC50 [21]: > 10 µM
- IC50 [22]: > 10 µM
- IC50 [23]: > 10 µM
- IC50 [24]: > 10 µM
- IC50 [25]: > 10 µM
- IC50 [26]: > 10 µM
- IC50 [27]: > 10 µM
- IC50 [28]: > 10 µM
- IC50 [29]: > 10 µM
- IC50 [30]: > 10 µM
- IC50 [31]: > 10 µM
- IC50 [32]: > 10 µM
- IC50 [33]: > 10 µM
- IC50 [34]: > 10 µM
- IC50 [35]: > 10 µM
- IC50 [36]: > 10 µM
- IC50 [37]: > 10 µM
- IC50 [38]: > 10 µM
- IC50 [39]: > 10 µM
- IC50 [40]: > 10 µM
- IC50 [41]: > 10 µM
- IC50 [42]: > 10 µM
- IC50 [43]: > 10 µM
- IC50 [44]: > 10 µM
- IC50 [45]: > 10 µM
- IC50 [46]: > 10 µM
- IC50 [47]: > 10 µM

Compound: NC(=O)c1ccc(N(C(N)=O)c2c(F)cccc2F)nc1-c1ccc(F)cc1F [VX-702]
- IC50 [1]: 0.146 µM
- IC50 [2]: > 2 µM
- IC50 [3]: > 2 µM
- IC50 [4]: > 2 µM
- IC50 [5]: > 2 µM
- IC50 [6]: > 2 µM
- IC50 [7]: > 2 µM
- IC50 [8]: > 2 µM
- IC50 [9]: > 2 µM
- IC50 [10]: > 2 µM
- IC50 [11]: > 2 µM
- IC50 [12]: > 2 µM
- IC50 [13]: > 2 µM
- IC50 [14]: > 2 µM
- IC50 [15]: > 2 µM
- IC50 [16]: > 2 µM
- IC50 [17]: > 2 µM
- IC50 [18]: > 2 µM
- IC50 [19]: > 2 µM
- IC50 [20]: > 2 µM
- IC50 [21]: > 2 µM
- IC50 [22]: > 2 µM
- IC50 [23]: > 2 µM
- IC50 [24]: > 2 µM
- IC50 [25]: > 2 µM
- IC50 [26]: > 2 µM
- IC50 [27]: > 2 µM
- IC50 [28]: > 2 µM
- IC50 [29]: > 2 µM
- IC50 [30]: > 2 µM
- IC50 [31]: > 2 µM
- IC50 [32]: > 2 µM
- IC50 [33]: > 2 µM
- IC50 [34]: > 2 µM
- IC50 [35]: > 2 µM
- IC50 [36]: > 2 µM
- IC50 [37]: > 2 µM
- IC50 [38]: > 2 µM
- IC50 [39]: > 2 µM
- IC50 [40]: > 2 µM
- IC50 [41]: > 2 µM
- IC50 [42]: > 2 µM
- IC50 [43]: > 2 µM
- IC50 [44]: > 2 µM
- IC50 [45]: > 2 µM
- IC50 [46]: > 2 µM
- IC50 [47]: > 2 µM
